Like-named read-outs stand apart in the source and are kept apart here.
Key:
SARS-COV-2 [1] = assay: microbe, parasite or virus in culture; type: cell-based; conditions: for suppression of SARS-COV-2 infection (N protein expression), in words: 0.08 to 50 μM; for IC50: read-out: IC50, suppressing SARS-COV-2 infection (N protein expression)
HCoV-OC43 = HCoV-OC43 dose response curve analysis, virion production (plaque assay), HCT-8 cells; type: cell-based; conditions: 0.05 MOI, 72 hours after infection
[2] = tested on: SARS-COV-2 RNA G4, position 353 (NsP1); assay: CD thermal melting analysis, G4 No. 1; type: binding; conditions: G4 No. 1, position 353, NsP1; 15 μM RNA G4, 30 μM compound
Experimental: (§1) For melting, the samples were heated at 25 to 95° C. at 2° C./min with a data pitch of 0.5° C. CD melting analyses were performed with and without G4-binding compounds. The ratio of RNA: G4-binding compound was set to a molar ratio of 1:2. 15 μM RNA G4 was treated with 30 μM G4-binding compound and incubated at room temperature in a buffer comprising 10 mM Tris-HCl (pH 7.5) and 100 mM KCl for 30 minutes. Ellipticity was measured at 265 nm. Thereafter, data were normalized and plotted in OriginPro 2017 to calculate Tm values.
(§2) In addition, 15 μM RNA G4 was treated with 30 μM compound and incubated, and a CD thermal melting curve of RNA G4 (15 μM) was obtained in the presence or absence of the G4-binding compound. Furthermore, the effect of G4-binding compounds on the stability of SARS-COV-2 G4 was confirmed by measuring the difference in melting temperature (ΔTm). The results are illustrated in FIGS. 6A and 6B.

[3] = tested on: SARS-COV-2 RNA G4, position 644 (NsP1); assay: CD thermal melting analysis, G4 No. 2; type: binding; conditions: G4 No. 2, position 644, NsP1; 15 μM RNA G4, 30 μM compound
Experimental: as §1, §2

[4] = tested on: SARS-COV-2 RNA G4, position 1463 (NsP2); assay: CD thermal melting analysis, G4 No. 3; type: binding; conditions: G4 No. 3, position 1463, NsP2; 15 μM RNA G4, 30 μM compound
Experimental: as §1, §2

[5] = tested on: SARS-COV-2 RNA G4, position 1574 (NsP2); assay: CD thermal melting analysis, G4 No. 4; type: binding; conditions: G4 No. 4, position 1574, NsP2; 15 μM RNA G4, 30 μM compound
Experimental: as §1, §2

[6] = tested on: SARS-COV-2 RNA G4, position 2714 (NsP2 + NsP3); assay: CD thermal melting analysis, G4 No. 5; type: binding; conditions: G4 No. 5, position 2714, NsP2 + NsP3; 15 μM RNA G4, 30 μM compound
Experimental: as §1, §2

[7] = tested on: SARS-COV-2 RNA G4, position 3467 (NsP3); assay: CD thermal melting analysis, G4 No. 6; type: binding; conditions: G4 No. 6, position 3467, NsP3; 15 μM RNA G4, 30 μM compound
Experimental: as §1, §2

[8] = tested on: SARS-COV-2 RNA G4, position 4261 (NsP3); assay: CD thermal melting analysis, G4 No. 8; type: binding; conditions: G4 No. 8, position 4261, NsP3; 15 μM RNA G4, 30 μM compound
Experimental: as §1, §2

[9] = tested on: SARS-COV-2 RNA G4, position 10261 (NsP5); assay: CD thermal melting analysis, G4 No. 10; type: binding; conditions: G4 No. 10, position 10261, NsP5; 15 μM RNA G4, 30 μM compound
Experimental: as §1, §2

[10] = tested on: SARS-COV-2 RNA G4, position 14947 (NsP12); assay: CD thermal melting analysis, G4 No. 12; type: binding; conditions: G4 No. 12, position 14947, NsP12; 15 μM RNA G4, 30 μM compound
Experimental: as §1, §2

[11] = tested on: SARS-COV-2 RNA G4, position 18296 (NsP12); assay: CD thermal melting analysis, G4 No. 15; type: binding; conditions: G4 No. 15, position 18296, NsP12; 15 μM RNA G4, 30 μM compound
Experimental: as §1, §2

[12] = tested on: SARS-COV-2 RNA G4, position 25197 (Surface glycoprotein); assay: CD thermal melting analysis, G4 No. 19; type: binding; conditions: G4 No. 19, position 25197, Surface glycoprotein; 15 μM RNA G4, 30 μM compound
Experimental: as §1, §2

[13] = tested on: SARS-COV-2 RNA G4, position 26746 (Membrane protein); assay: CD thermal melting analysis, G4 No. 21; type: binding; conditions: G4 No. 21, position 26746, Membrane protein; 15 μM RNA G4, 30 μM compound
Experimental: as §1, §2

[14] = tested on: SARS-COV-2 RNA G4, position 28781 (Nucleocapsid protein); assay: CD thermal melting analysis, G4 No. 22; type: binding; conditions: G4 No. 22, position 28781, Nucleocapsid protein; 15 μM RNA G4, 30 μM compound
Experimental: as §1, §2

[15] = tested on: SARS-COV-2 RNA G4, position 28903 (Nucleocapsid protein); assay: CD thermal melting analysis, G4 No. 23; type: binding; conditions: G4 No. 23, position 28903, Nucleocapsid protein; 15 μM RNA G4, 30 μM compound
Experimental: as §1, §2

[16] = tested on: 25 G4s predicted for SARS-COV-2; assay: CD thermal melting analysis, comparison of ΔTm over all G4s; type: binding
HEK293T cells = assay: Cell viability analysis (EZ Cytox), HEK293T cells; type: cell-based, Human; conditions: at 75 µM, after 48 hours
Experimental: (§3) Human embryonic kidney (HEK293T) cells and Vero cells were maintained in high-glucose Dulbecco's Modified Eagle's Medium (DMEM) supplemented with 10% fetal bovine serum (FBS) and 1% penicillin-streptomycin, and cultured in a humidified incubator at 37° C. and 5% CO2.
(§4) Cytotoxicity was analyzed using an EZ Cytox assay kit (DogenBio, Korea). HEK293T and Vero cells were put into a 96-well plate at a density of 2×10^4 cells/well in a medium volume of 100 μl/well and cultured at 37° C. for 24 hours. After 24 hours, the cells were treated with the G4-binding compound at various concentrations (0.1, 0.5, 1, 2.5, 5.5, 7.5, 10, 25, 50, and 75 μM) and cultured at 37° C. for 24 hours or 48 hours. Cell viability (%) was calculated by measuring the absorbance value at 455 nm (Luminescence multi-mode microplate reader Synergy™ Neo2) and using the following Equation 1. All experiments were performed in triplicate, and cells untreated with the compound were used as a control. DMEM with the EZ Cytox reagent was used as a blank.
(§5) The toxicity of PDS and PhenDC3 was confirmed in HEK293T cells and Vero cells. The results are illustrated in FIGS. 7A to 7D.

Vero cells = assay: Cell viability analysis (EZ Cytox), Vero cells; type: cell-based; conditions: up to 75 μM after 48 hours
Experimental: as §3, §4, §5

N1-WT-G4-353 (Nsp1 G4) = assay: In-vitro transcription/translation (IVT) analysis, EYFP reporter western blot, N1-WT-G4-353; type: biochemical, SARS-COV-2
N1-WT-G4-644 (Nsp1 G4) = assay: In-vitro transcription/translation (IVT) analysis, EYFP reporter western blot, N1-WT-G4-644; type: biochemical, SARS-COV-2; conditions: N1-WT-G4-644, compound at 5 μM
N1-WT-G4-3467 (Nsp3 G4) = assay: In-vitro transcription/translation (IVT) analysis, EYFP reporter western blot, N1-WT-G4-3467; type: biochemical, SARS-COV-2; conditions: N1-WT-G4-3467, compound at 50 μM
N1-Mut-G4-3467 = type: biochemical, SARS-COV-2; conditions: N1-Mut-G4-3467, 5, 15, 25 and 50 μM
SARS-COV-2 [17] = assay: microbe, parasite or virus in culture; type: cell-based; conditions: Vero cells, read-out: IC50, virion production
[18] = Severe acute respiratory syndrome coronavirus 2, Vero cells, 0.0125 MOI, 24 hours

CN(C)c1ccc(Nc2c3ccc(NC(=O)CCN4CCCC4)cc3nc3cc(NC(=O)CCN4CCCC4)ccc23)cc1 [BRACO19, N-[9-[4-(dimethylamino)anilino]-6-(3-pyrrolidin-1-ylpropanoylamino)acridin-3-yl]-3-pyrrolidin-1-ylpropanamide]
suppression of SARS-COV-2 infection (N protein expression), in words (SARS-COV-2 [1]; Vero cells): suppressed SARS-COV-2 infection at high concentrations

CCC1=C(C)c2cc3[nH]c(cc4nc(cc5c(CC)c(C)c(cc1n2)n5C)C(C)=C4CCC(=O)O)c(CCC(=O)O)c3C [NMM, 3-[18-(2-carboxyethyl)-7,12-diethyl-3,8,13,17,22-pentamethyl-23H-porphyrin-2-yl]propanoic acid]
suppression of SARS-COV-2 infection (N protein expression), in words (SARS-COV-2 [1]; Vero cells): suppressed SARS-COV-2 infection at high concentrations | IC50 (HCoV-OC43): 2.1 µM

C[n+]1cc(NC(=O)c2ccc3ccc4ccc(C(=O)Nc5cc6ccccc6[n+](C)c5)nc4c3n2)cc2ccccc21 [PhenDC3, 2-N, 9-N-bis(1-methylquinolin-1-ium-3-yl)-1,10-phenanthroline-2,9-dicarboxamide]
Tm in ° C. with compound [2]: 82.00 °C | ΔTm [2]: 10.41 °C | Tm in ° C. with compound [3]: 71.44 °C | ΔTm [3]: 23.71 °C | Tm in ° C. with compound [4]: 91.3 °C | ΔTm [4]: 35.78 °C | Tm in ° C. with compound [5]: 47.74 °C | ΔTm [5]: −5.64 °C | Tm in ° C. with compound [6]: 91.7 °C | ΔTm [6]: 20.56 °C | Tm in ° C. with compound [7]: 98.81 °C | ΔTm [7]: 33.25 °C | Tm in ° C. with compound [8]: 85.41 °C | ΔTm [8]: 35.1 °C | Tm in ° C. with compound [9]: 63.49 °C | ΔTm [9]: 15.6 °C | Tm in ° C. with compound [10]: 82.96 °C | ΔTm [10]: 25.75 °C | Tm in ° C. with compound [11]: 86.32 °C | ΔTm [11]: 27.49 °C | Tm in ° C. with compound [12]: 57.51 °C | ΔTm [12]: −13.68 °C | Tm in ° C. with compound [13]: 79.68 °C | ΔTm [13]: 17.02 °C | Tm in ° C. with compound [14]: 70.40 °C | ΔTm [14]: 5.7 °C | Tm in ° C. with compound [15]: 60.21 °C | ΔTm [15]: 3.1 °C | effect on stability of SARS-COV-2 G4 (ΔTm), in words ([16]; 15 μM RNA G4, 30 μM compound, FIGS. 6A and 6B): significantly stabilized most G4s | proportion of the G4s with ΔTm>20° C. ([16]; among the 25 G4s predicted for SARS-COV-2): 72% | number of G4s Destabilized ([16]; of the 25 SARS-COV-2 G4s): 2 | reduction in viability, HEK293T cells (HEK293T cells): 25% | cytotoxicity in Vero cells (Vero cells): no cytotoxicity was observed | EYFP expression reduced by (N1-WT-G4-353 (Nsp1 G4); N1-WT-G4-353, compound at 50 μM): 90% | suppressing EYFP reporter expression (N1-WT-G4-353 (Nsp1 G4); N1-WT-G4-353, concentrations less than 50 μM): not effective | EYFP expression reduced by (N1-WT-G4-644 (Nsp1 G4)): 50% | reduction in EYFP expression (N1-WT-G4-3467 (Nsp3 G4)): 70% | EYFP expression, concentration-dependent suppression (N1-Mut-G4-3467): not suppressed | IC50 (SARS-COV-2 [17]; 24 hours after infection): 24.5 µM | IC50 (SARS-COV-2 [17]; 48 hours after infection): 23.2 µM

C[n+]1ccccc1-c1c2nc(c(-c3cccc[n+]3C)c3ccc([nH]3)c(-c3cccc[n+]3C)c3nc(c(-c4cccc[n+]4C)c4ccc1[nH]4)C=C3)C=C2 [TMPyP2, 5,10,15,20-tetrakis(1-methylpyridin-1-ium-2-yl)-21,23-dihydroporphyrin]
IC50 (HCoV-OC43): 11.7 µM

C[n+]1ccc(-c2c3nc(c(-c4cc[n+](C)cc4)c4ccc([nH]4)c(-c4cc[n+](C)cc4)c4ccc([nH]4)c(-c4cc[n+](C)cc4)c4nc2C=C4)C=C3)cc1 [TMPyP4, 5,10,15,20-tetrakis(1-methylpyridin-1-ium-4-yl)-21,23-dihydroporphyrin]
IC50 (HCoV-OC43): 2.8 µM

CCN(CC)CCCC(C)Nc1ccnc2cc(Cl)ccc12 (stereo not drawn) [chloroquine, reference compound]
IC50 (SARS-COV-2 [1]; [18]): 9.63 µM

Cc1cccc(C)c1OCC(=O)N[C@@H](Cc1ccccc1)[C@@H](O)C[C@H](Cc1ccccc1)NC(=O)[C@H](C(C)C)N1CCCNC1=O [lopinavir, reference compound]
IC50 (SARS-COV-2 [1]; [18]): 12.1 µM

CCC(CC)COC(=O)[C@H](C)N[P@](=O)(OC[C@H]1O[C@@](C#N)(c2ccc3c(N)ncnn23)[C@H](O)[C@@H]1O)Oc1ccccc1 [remdesivir, reference compound]
IC50 (SARS-COV-2 [1]; Severe acute respiratory syndrome coronavirus 2, Vero, 24 h): 8.78 µM

Source: US20240390328A1, “PHARMACEUTICAL COMPOSITION CONTAINING AS ACTIVE INGREDIENT COMPOUND CONJUGATED TO G4 STRUCTURES OF CORONAVIRUSES FOR PREVENTION OR TREATMENT OF CORONAVIRUS INFECTIOUS DISEASES” (priority 2020, published 2024)
